From patent US20170215432A1, “SYNERGIZED PLANT EXTRACT/ESSENTIAL OIL BLEND COMPRISING BASIL OIL” (VAMA INC., priority 2014, published 2017)

Test system: Anopheles, Aedes, Stephinsi and Culex mosquito vectors
Assay: Laboratory cage repellency, landing counts on treated sugar-soaked cotton bowls
Assay type: in vivo
Experimental: Studies were carried out against each individual species in replicates of three in each of the replicate cage, one hundred 3 to 5-day old sugar—fed female mosquitoes were held. Mosquito that are pre-starved for 4 hr or more prior to testing were used for the experiment.
Five plastic bowls with sugar—soaked cotton (10% in water) were placed at four opposing corners and one in the middle of the cage. These bowls were treated with the specified concentration of the composition described in Example 3, one specified concentration of DEET (know synthetic repellent compound as positive control) and one with only sugar-soaked cotton (Negative control). The four treated bowls were placed in four opposing corners while the untreated negative control in the middle on the floor of the cage. Five-minute landing counts were made at 0, 1, 2, 3, 4, and 6 hours with the cups were removed between the exposure intervals. Mean percent repellency for each percent formulation and species was calculated based on the data of the three replicates at the given times of observation.

CCN(CC)C(=O)c1cccc(C)c1 [DEET]
mosquitoes repelled with reference to the control (after 4 hrs): 79%
mosquitoes repelled (in 4 hrs): 97%
